Assay results published in paper PMC5607274, “An iterative compound screening contest method for identifying target protein inhibitors using the tyrosine-protein kinase Yes” (Scientific Reports, 2017).

The molecules below were run against T1, human recombinant Yes [a.a. 2–543 (end)] (Homo sapiens, UniProt P07947) (assay: ADP-Glo kinase assay, inhibition rates of Yes phosphorylation activity (first and second screening)). Details: first screening; mean of n = 4 wells; 10 μmol L−1 compound.
T1 construct: human recombinant Yes [a.a; 2–543 (end)]; purchased BPS Bioscience 40488
Assay type: biochemical
In short: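 Hits from a first pass were rescreened after re-dissolution from fresh powder. The first pass reported the mean inhibition rate of quadruplicate wells per compound. Activity was that of recombinant human Yes [a.a. 2–543] kinase, read out with the ADP-Glo ADP-detection method.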

T1 sequence (P07947 2-543): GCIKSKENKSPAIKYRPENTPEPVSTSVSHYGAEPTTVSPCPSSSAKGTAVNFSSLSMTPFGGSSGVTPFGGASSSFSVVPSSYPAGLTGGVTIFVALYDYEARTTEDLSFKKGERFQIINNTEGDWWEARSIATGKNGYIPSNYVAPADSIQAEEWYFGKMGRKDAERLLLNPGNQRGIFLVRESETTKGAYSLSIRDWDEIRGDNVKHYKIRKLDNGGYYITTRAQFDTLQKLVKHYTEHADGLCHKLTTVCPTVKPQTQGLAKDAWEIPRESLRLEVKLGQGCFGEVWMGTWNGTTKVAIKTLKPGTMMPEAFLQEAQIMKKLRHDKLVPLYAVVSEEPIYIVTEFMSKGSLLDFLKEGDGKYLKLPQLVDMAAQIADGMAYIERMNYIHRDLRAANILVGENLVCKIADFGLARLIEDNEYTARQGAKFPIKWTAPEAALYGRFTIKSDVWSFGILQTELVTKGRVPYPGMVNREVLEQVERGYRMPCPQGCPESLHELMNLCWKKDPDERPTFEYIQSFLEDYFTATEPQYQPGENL

Compared with CC(C)N(CCNC(=O)CCc1nnc2n(Cc3ccccc3)c(=O)c3ccccc3n12)Cc1ccco1 [Compound Z1169067733], Cc1ccc(Cn2c(=O)c3ccccc3n3c(CCC(=O)NCCN(Cc4ccco4)C(C)C)nnc23)cc1 [Compound Z1169067782] is higher in “First screening IR (inhibition rate)” value: 3% for the first, 4% for the second.

Going from Cc1ccc(Cn2c(=O)c3ccccc3n3c(CCC(=O)NCCCN4CCOCC4)nnc23)cc1 [Compound Z1169067737] to Cc1ccc(Cn2c(=O)c3ccccc3n3c(CCC(=O)NCCCN4CCC(C)CC4)nnc23)cc1 [Compound Z1169067743], the “First screening IR (inhibition rate)” value rises from 2% to 18%.

Compared with CC(C)N(CCNC(=O)CCc1nnc2n(Cc3ccc(F)cc3)c(=O)c3ccccc3n12)Cc1ccco1 [Compound Z1169067840], CCc1nn2c(Nc3ccc(C(N)=O)cc3)cc(C)nc2c1-c1ccc(F)cc1 [Compound Z1179617819] is higher in “First screening IR (inhibition rate)” value: -10% for the first, 6% for the second.

First: Cc1[nH]c(=O)c(C#N)c(C)c1CCc1nc(-c2cc(Br)cs2)no1 [Compound Z1170101191]
Second: Cc1ccc2nc3c(c(C(=O)O)c2c1)CCC/C3=C/c1cnn(C(C)C)c1 [Compound Z1184925017]
The “First screening IR (inhibition rate)” value of the first is higher: 10% for the first, -1% for the second.

Compared with COCC(=O)N1CCCCCC1C1CCN(c2ncc(C(N)=O)cc2Cl)CC1 (centres unmarked) [Compound Z1170427223], O=C(C1CC1)N1CCCCCC1C1CCN(Cc2nnc(C3CC3)o2)CC1 (centres unmarked) [Compound Z1170432033] is higher in “First screening IR (inhibition rate)” value: 2% for the first, 7% for the second.

First: Cc1ncc(C(=O)NC(C)c2cccc(NC(=O)c3ccccc3)c2)[nH]1 (centres unmarked) [Compound Z1171689075]
Second: N#Cc1cccc(NC(=O)NCCNC(=O)c2c(F)cccc2F)c1 [Compound Z1189154512]
The “First screening IR (inhibition rate)” value of the first is lower: -17% for the first, -6% for the second.

Compared with Cc1n[nH]c(C)c1C(C)C(=O)NCC(c1cccc(Cl)c1)N1CCCC1 (centres unmarked) [Compound Z1172045589], CCc1cc(=O)[nH]c(-c2cccc(NC(=O)C3(N4CCOCC4)CCCC3)c2)n1 [Compound Z1203120735] is lower in “First screening IR (inhibition rate)” value: 9% for the first, 3% for the second.

First: CC(=O)Nc1ccc(Nc2cc(C(C)(C)C)nc3c(-c4ccccc4Cl)c(C)nn23)cc1 [Compound Z1172235206]
Second: FC(F)(F)c1ccnc(Nc2ccc(NCc3ccccn3)cc2)n1 [Compound Z1192169075]
The “First screening IR (inhibition rate)” value of the first is lower: 6% for the first, 39% for the second.

First: Cc1ccc(Cn2ncc3c(N4CCN(CCO)CC4)ncnc32)cc1 [Compound Z1172235406]
Second: Clc1ccccc1Cn1ncc2c(N3CCCC3)ncnc21 [Compound Z1172235419]
The “First screening IR (inhibition rate)” value of the first is lower: -13% for the first, 45% for the second.

Compared with Clc1ccccc1Cn1ncc2c(N3CCOCC3)ncnc21 [Compound Z1172235408], Clc1ccccc1Cn1ncc2c(NCCc3ccccc3)ncnc21 [Compound Z1172235413] is higher in “First screening IR (inhibition rate)” value: -4% for the first, 4% for the second.

First: CCSc1ccc(C(=O)NCCc2nc(-c3ccco3)n[nH]2)cn1 [Compound Z1174718157]
Second: Cc1[nH]ncc1Nc1ccc2nccnc2n1 [Compound Z1182665660]
The “First screening IR (inhibition rate)” value of the first is higher: 62% for the first, 6% for the second.

O=C(Nc1nccs1)C1CCCN(C(=O)c2[nH]ncc2Br)C1 (centres unmarked) [Compound Z1177677805] and O=C(NC(C1CC1)C1CC1)C1CCCN1c1ncnc2sccc12 (centres unmarked) [Compound Z1190394303] are the same in “First screening IR (inhibition rate)” value: 6% for the first, 6% for the second.

Compared with O=C(Nc1ccc(F)cc1)NC1CCN(c2ncnc3nc[nH]c23)C1 (centres unmarked) [Compound Z1193297141], O=C1Cc2cc(Nc3nccc(C(F)(F)F)n3)ccc2N1 [Compound Z1199266078] is higher in “First screening IR (inhibition rate)” value: -11% for the first, 13% for the second.

Going from CCC(C)CS(=O)(=O)N(C)CC (centres unmarked) [Compound Z1193464552] to CN(C)C1(CNC(=O)CNC(=O)c2cc(F)cc(F)c2)CCOCC1 [Compound Z1199845522], the “First screening IR (inhibition rate)” value rises from -7% to 6%.

With COc1ccc(-n2ccc(C(=O)N3CCCCC3c3cn[nH]c3)n2)cc1 (centres unmarked) [Compound Z1198921141] the “First screening IR (inhibition rate)” value was 5%.
